Results from PubChem BioAssay AID743165 (Broad Institute, 2013).

System: Mycobacterium tuberculosis replicating, CFU imaging
Test: IC90 against replicating M. tuberculosis, dose response, CFU by imaging, dry powder, 7108-03 (AID 743165)

Row | Compound | IC90
1 | CCOC(=O)NC(=O)c1ccsc1NC(=O)c1nc2ccccc2s1 | < 8 µM
2 | Cn1c(NC(=O)c2ccccc2)nc2ccccc21 | < 48 µM
